Laboratory results: patent US8268848B2, “Cyclopropane compound” (Eisai R&D Management Co., Ltd., priority 2010, dated 2012)
Read-outs that look alike come from different tables or passages of the source.

Tests used:
OX2 = target: T1, OX2 (Homo sapiens, UniProt O43614); assay: Measurement of orexin receptor-binding ability ([125I]-OX-A, cell membranes, OX2); parameters: expressed in transfected cells; host or cells: CHO cells (membrane preparation); conditions: membranes of recombinant CHO cells expressing OX2, 0.2 nM [125I]-OX-A
T1 sequence (O43614 1-444): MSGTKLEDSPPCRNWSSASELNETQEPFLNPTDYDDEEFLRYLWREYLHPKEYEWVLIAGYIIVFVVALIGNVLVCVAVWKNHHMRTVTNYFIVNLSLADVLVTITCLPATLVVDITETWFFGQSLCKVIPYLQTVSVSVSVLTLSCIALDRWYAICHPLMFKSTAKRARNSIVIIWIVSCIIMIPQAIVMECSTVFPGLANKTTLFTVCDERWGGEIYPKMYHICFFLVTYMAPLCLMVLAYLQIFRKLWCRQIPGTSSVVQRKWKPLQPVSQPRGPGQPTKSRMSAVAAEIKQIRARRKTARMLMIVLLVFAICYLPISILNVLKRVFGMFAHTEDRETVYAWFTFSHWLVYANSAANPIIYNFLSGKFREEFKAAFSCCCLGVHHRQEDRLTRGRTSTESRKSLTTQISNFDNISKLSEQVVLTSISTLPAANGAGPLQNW

OX1 = target: T2, OX1 (Homo sapiens, UniProt O43613); assay: Measurement of orexin receptor-binding ability ([125I]-OX-A, cell membranes, OX1); parameters: expressed in transfected cells; host or cells: CHO cells (membrane preparation)
T2 sequence (O43613 1-425): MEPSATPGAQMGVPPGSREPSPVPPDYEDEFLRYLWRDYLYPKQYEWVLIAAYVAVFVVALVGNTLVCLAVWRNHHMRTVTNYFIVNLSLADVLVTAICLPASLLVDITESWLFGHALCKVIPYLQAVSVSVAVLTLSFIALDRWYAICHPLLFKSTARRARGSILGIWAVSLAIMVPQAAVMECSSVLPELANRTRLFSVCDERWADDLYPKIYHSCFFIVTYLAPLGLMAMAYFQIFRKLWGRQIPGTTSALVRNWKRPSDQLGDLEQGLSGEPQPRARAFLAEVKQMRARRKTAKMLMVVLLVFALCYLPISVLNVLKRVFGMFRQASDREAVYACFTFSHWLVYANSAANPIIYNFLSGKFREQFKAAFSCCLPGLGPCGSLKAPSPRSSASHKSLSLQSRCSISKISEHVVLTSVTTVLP

[1] = membranes of recombinant CHO cells expressing OX1, 0.2 nM [125I]-OX-A, read-out: OX1 (IC50)

SMILES | IC50 (OX2; OX2 (IC50) nM) | IC50 (OX1) | IC50 (OX2; read-out: OX2 (IC50)) | IC50 (OX1; [1])
Cc1ncc(OC[C@@]2(c3cccc(F)c3)C[C@H]2C(=O)Nc2ccc(F)c(O)n2)c(C)n1 [Example 325, (1R,2S)-2-{[(2,4-dimethylpyrimidin-5-yl)oxy]methyl}-N-(5-fluoro-6-hydroxypyridin-2-yl)-2-(3-fluorophenyl)cyclopropanecarboxamide] | 20 nM | 0.158 µM | – | –
Cc1ncc(OCC2(c3ccc(F)cc3)CC2C(=O)Nc2ccc(C#N)cn2)c(C)n1 (stereo not drawn) [Example 101] | – | – | 84 nM | 0.29 µM
COCc1nc(C)ncc1OC[C@@]1(c2ccc(F)c(F)c2)C[C@H]1C(=O)Nc1cc(C)c(F)cn1 [Example 212, (1R,2S)-2-(3,4-difluorophenyl)-N-(5-fluoro-4-methylpyridin-2-yl)-2-{[(4-methoxymethyl-2-methylpyrimidin-5-yl)oxy]methyl}cyclopropanecarboxamide] | – | – | 7 nM | 0.004 µM
Cc1ncc(OC[C@@]2(c3ccc(F)c(F)c3)C[C@H]2C(=O)Nc2ccc(F)cn2)c(C)n1 [Example 169, (1R,2S)-2-(3,4-difluorophenyl)-2-{[(2,4-dimethylpyrimidin-5-yl)oxy]methyl}-N-(5-fluoropyridin-2-yl)cyclopropanecarboxamide] | 4 nM | 0.014 µM | – | –
Cc1ncc(OC[C@@]2(c3cc(F)cc(F)c3)C[C@H]2C(=O)Nc2ccc(F)cc2F)c(C)n1 [Example 135, (1R,2S)-N-(2,4-difluorophenyl)-2-(3,5-difluorophenyl)-2-{[(2,4-dimethylpyrimidin-5-yl)oxy]methyl}cyclopropanecarboxamide] | – | – | 8 nM | 0.014 µM
COCc1nc(C)ncc1OC[C@@]1(c2cccc(F)c2)C[C@H]1C(=O)Nc1ccc(C#N)cn1 [Example 200] | 12 nM | 0.067 µM | – | –
Cc1ncc(OC[C@@]2(c3ccccc3)C[C@H]2C(=O)Nc2cccc(Cl)c2)c(C)n1 [Example 24, (1R,2S)-N-(3-chlorophenyl)-2-{[(2,4-dimethylpyrimidin-5-yl)oxy]methyl}-2-phenylcyclopropanecarboxamide] | – | – | 7 nM | 0.028 µM
Cc1ncc(OCC2(c3ccc(F)cc3)CC2C(=O)Nc2ccc(Cl)cn2)c(C)n1 (stereo not drawn) [Example 102] | 23 nM | 0.05 µM | – | –
Cc1ncc(N(C)C[C@@]2(c3ccccc3)C[C@H]2C(=O)Nc2cc(C)c(Cl)cn2)c(C)n1 [Example 301] | – | – | 28 nM | 0.175 µM
COCc1nc(C)ncc1OC[C@@]1(c2cc(F)cc(OC)c2)C[C@H]1C(=O)Nc1ccc(F)c(F)c1 [Example 232, (1R,2S)-N-(3,4-difluorophenyl)-2-(3-fluoro-5-methoxyphenyl)-2-{[(4-methoxymethyl-2-methylpyrimidin-5-yl)oxy]methyl}cyclopropanecarboxamide] | – | – | 3 nM | 0.001 µM
Cc1ncc(OCC2(c3ccccc3Cl)CC2C(=O)Nc2ccc(Cl)cn2)c(C)n1 (stereo not drawn) [Example 152] | 36 nM | 0.058 µM | – | –
O=C(Nc1ccc(F)cn1)[C@@H]1C[C@@]1(COc1c[nH]c(=O)nc1C(F)(F)F)c1cc(F)cc(F)c1 [Example 291, (1R,2S)-2-(3,5-difluorophenyl)-N-(5-fluoropyridin-2-yl)-2-{[(2-oxo-4-trifluoromethyl-1,2-dihydropyrimidin-5-yl)oxy]methyl}cyclopropanecarboxamide] | – | – | 49 nM | > 0.2 µM
Cc1ncc(OC[C@@]2(c3cccs3)C[C@H]2C(=O)Nc2ccc(Cl)cn2)c(C)n1 [Example 267] | – | – | 64 nM | 0.118 µM
Cc1ccc(NC(=O)[C@@H]2C[C@@]2(COc2cnc(C)nc2C)c2ccccc2)nc1 [Example 69] | 34 nM | 0.126 µM | – | –
Cc1nc(C)c(OC[C@@]2(c3cccc(F)c3)C[C@H]2C(=O)Nc2ccc(F)cn2)c(=O)[nH]1 [Example 326, (1R,2S)-2-{[(2,4-dimethyl-6-oxo-1,6-dihydropyrimidin-5-yl)oxy]methyl}-2-(3-fluorophenyl)-N-(5-fluoropyridin-2-yl)cyclopropanecarboxamide] | 6 nM | 0.123 µM | – | –
CCc1nc(C)ncc1OC[C@@]1(c2ccc(F)cc2)C[C@H]1C(=O)Nc1ccc(F)cn1 [Example 246, (1R,2S)-2-{[(4-ethyl-2-methylpyrimidin-5-yl)oxy]methyl}-2-(4-fluorophenyl)-N-(5-fluoropyridin-2-yl)cyclopropanecarboxamide] | 4 nM | 0.016 µM | – | –
CCc1nc(C)ncc1OC[C@@]1(c2ccccc2)C[C@H]1C(=O)Nc1ccc(F)cc1 [Example 318] | – | – | 11 nM | 0.135 µM

SMILES | IC50 (OX2; OX2 (IC50) nM) | IC50 (OX1) | IC50 (OX2; read-out: OX2 (IC50)) | IC50 (OX1; [1])
Cc1ncc(OC[C@@]2(c3cccc(F)c3)C[C@H]2C(=O)Nc2ccc(F)nc2)c(C)n1 [Example 88] | 13 nM | 0.267 µM | – | –
Cc1ncc(OC[C@@]2(c3ccsc3)C[C@H]2C(=O)Nc2ccc(F)cn2)c(C)n1 [Example 270] | 58 nM | 0.264 µM | – | –
COCc1nc(C)ncc1OC[C@@]1(c2ccc(F)cc2)C[C@H]1C(=O)Nc1ccc(Cl)cn1 [Example 204, (1R,2S)-N-(5-chloropyridin-2-yl)-2-(4-fluorophenyl)-2-{[(4-methoxymethyl-2-methylpyrimidin-5-yl)oxy]methyl}cyclopropanecarboxamide] | – | – | 5 nM | 0.022 µM
COCc1nc(C)ncc1OC[C@@]1(c2cccc(F)c2)C[C@H]1C(=O)Nc1ccc(F)cc1F [Example 196, (1R,2S)-N-(2,4-difluorophenyl)-2-(3-fluorophenyl)-2-{[(4-methoxymethyl-2-methylpyrimidin-5-yl)oxy]methyl}cyclopropanecarboxamide] | – | – | 4 nM | 0.009 µM
Cc1ncc(OCC2(c3ccccc3C)CC2C(=O)Nc2ccc(F)cn2)c(C)n1 (stereo not drawn) [Example 179] | 29 nM | 0.167 µM | – | –
Cc1ncc(OCC2(c3cccc(Br)c3)CC2C(=O)Nc2ccc(F)cn2)c(C)n1 (stereo not drawn) [Example 271] | 5 nM | 0.018 µM | – | –
Cc1ncc(OC[C@@]2(c3ccccc3)C[C@H]2C(=O)Nc2ccc(F)c(F)c2)c(C)n1 [Example 30] | – | – | 12 nM | 0.078 µM
COCc1nc(C)ncc1OC[C@@]1(c2cccc(F)c2)C[C@H]1C(=O)Nc1ccc(Cl)cn1 [Example 198, (1R,2S)-N-(5-chloropyridin-2-yl)-2-(3-fluorophenyl)-2-{[(4-methoxymethyl-2-methylpyrimidin-5-yl)oxy]methyl}cyclopropanecarboxamide] | 4 nM | 0.005 µM | – | –
COc1cncc(NC(=O)[C@@H]2C[C@@]2(COc2cnc(C)nc2C)c2ccc(F)cc2)c1 [Example 112] | – | – | 18 nM | 1.02 µM
COCc1nc(C)ncc1OC[C@@]1(c2cccc(F)c2)C[C@H]1C(=O)Nc1ccccn1 [Example 193, (1R,2S)-2-(3-fluorophenyl)-2-{[(4-methoxymethyl-2-methylpyrimidin-5-yl)oxy]methyl}-N-(pyridin-2-yl)cyclopropanecarboxamide] | 8 nM | 0.036 µM | – | –
COc1cccc(NC(=O)[C@@H]2C[C@@]2(COc2cnc(C)nc2C)c2ccccc2)c1 [Example 36, (1R,2S)-2-{[(2,4-dimethylpyrimidin-5-yl)oxy]methyl}-N-(3-methoxyphenyl)-2-phenylcyclopropanecarboxamide] | – | – | 3 nM | 0.009 µM
Cc1nc(C)[n+]([O-])cc1OC[C@@]1(c2cccc(F)c2)C[C@H]1C(=O)Nc1ccc(F)cn1 [Example 284] | 6 nM | 0.112 µM | – | –
Cc1ncc(OC[C@@]2(c3ccc(Br)cc3)C[C@H]2C(=O)Nc2ccc(Cl)cn2)c(C)n1 [Example 273, (1R,2S)-2-(4-bromophenyl)-N-(5-chloropyridin-2-yl)-2-{[(2,4-dimethylpyrimidin-5-yl)oxy]methyl}cyclopropanecarboxamide] | 10 nM | 0.069 µM | – | –
Cc1ncc(OC[C@@]2(c3ccccc3)C[C@H]2C(=O)Nc2cccc(C(F)(F)F)c2)c(C)n1 [Example 43, (1R,2S)-2-{[(2,4-dimethylpyrimidin-5-yl)oxy]methyl}-2-phenyl-N-[3-(trifluoromethyl)phenyl]cyclopropanecarboxamide] | – | – | 7 nM | 0.086 µM
Cc1ncc(OC[C@@]2(c3ccccc3)C[C@H]2C(=O)Nc2ccc3ccncc3c2)c(C)n1 [Example 13] | – | – | 71 nM | 1.24 µM
Cc1ncc(OCC2(c3cc(F)ccc3F)CC2C(=O)Nc2ccc(F)cn2)c(C)n1 (stereo not drawn) [Example 163, 2-(2,5-difluorophenyl)-2-{[(2,4-dimethylpyrimidin-5-yl)oxy]methyl}-N-(5-fluoropyridin-2-yl)cyclopropanecarboxamide] | 10 nM | < 0.02 µM | – | –
